Holding throughout (test): DTP human tumour cell line panel, 48 h
Experiment [1] deals with RXF 393 renal.
Experiment [2] has as its system SF-295 CNS.
For experiment [3], the system named is OVCAR-4 ovarian.
Experiment [4] deals with ACHN renal.
Experiment [5] relates to SK-MEL-2 melanoma.
Experiment [6] relates to SK-MEL-5 melanoma.
Experiment [7] relates to CCRF-CEM leukemia.
Experiment [8] has as its system HCT-15 colon.
In experiment [9] the test system is MOLT-4 leukemia.

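A five-concentration, 48-hour dose response in 96-well plates underlies each endpoint, interpolated linearly between surrounding concentrations. At the GI50, growth is halved. TGI: concentration producing complete growth inhibition.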

Turning to `O=C(CSc1nc2ccccc2nc1-c1ccccc1)Nc1ccc(F)cc1`, the GI50 in experiment [1] is 18.6 µM; in experiment [2], 40.6 µM; in experiment [3], 1.96 µM; in experiment [4], 41.9 µM; in [5], 73.5 µM; in experiment [6] it was 16.5 µM. Further, the results for the GI50 in [7] and in [8] were over 100 µM and 48.7 µM, respectively. Also, the TGI in experiment [1] was 68.5 µM; in experiment [2], over 100 µM; in [3] it was 15.7 µM; in experiment [4] it was over 100 µM; in [5] it was over 100 µM; in experiment [6], 54.8 µM. For the same compound, the TGI in experiment [7] and in experiment [8] was over 100 µM each time.

Regarding `COc1ccc(-c2nn(-c3ccc(NC(=O)c4ccc(Cl)c(Cl)c4)cc3)cc2-c2ccncc2)cc1Cl`, the GI50 is 0.804 µM in [1]; 2.3 µM in [9]; 0.979 µM in [2]; over 14.1 µM in experiment [3]; over 13.2 µM in [4]; 1.91 µM in experiment [6]. Besides, the GI50 in experiment [7] is 3.63 µM; in [8] it was 1.09 µM. For the same compound, the TGI in experiment [1] was 1.75 µM; in experiment [9], over 50 µM; in experiment [2], 2.67 µM; in [3] it was over 50 µM; in experiment [4], over 50 µM; in [6] it was over 50 µM. The TGI is over 50 µM in experiment [7] and over 11 µM in experiment [8].

Turning to `O=C1/C(=C/c2cccc(Cl)c2Cl)N=C(c2ccccc2)N1C1CC1`, the GI50 is 23.9 µM in experiment [1]; 19.2 µM in experiment [9]; 12.7 µM in experiment [2]; 16.7 µM in experiment [4]; 18.5 µM in [5]; 11.4 µM in experiment [6]. The GI50 in [8] was 12.3 µM. Further, the TGI in [1] was over 50 µM; in experiment [9], over 50 µM; in [2] it was 31.3 µM; in experiment [4], over 50 µM; in experiment [5], over 50 µM; in experiment [6] it was 24.7 µM. The TGI in experiment [8] was 39 µM.

For the compound `Cn1cc(-c2csc(-c3c[nH]c4ccc(F)cc34)n2)c2cnccc21`, the GI50 is 1.78 µM in experiment [1]; 1.74 µM in experiment [2]; 1.6 µM in experiment [3]; 1.74 µM in experiment [4]; 1.87 µM in experiment [5]; 1.65 µM in [6]. Moreover, the GI50 in experiment [8] was 1.67 µM. Moreover, the TGI in experiment [1] worked out at 3.25 µM; in [2], 3.25 µM; in [3], 3.06 µM; in [4] it was 3.12 µM; in experiment [5] it was 3.48 µM; in [6], 3.05 µM. In experiment [8], this compound had a TGI of 3.36 µM.

As for `Cc1ncc(C(=O)Nc2ccc(CN3CCN(C)CC3)c(C(F)(F)F)c2)cc1C#Cc1cnc(N)c2ccncc12`, the GI50 in [1] was 0.647 µM; in experiment [9] it was 0.389 µM; in [2], 1.23 µM; in [4] it was 0.303 µM; in [5], 1.72 µM; in experiment [6] it was 1.6 µM. For the same compound, the GI50 in experiment [7] is 2.73 µM; in experiment [8] it was 1.26 µM. Moreover, the TGI came out at 1.87 µM in [1]; 4.62 µM in experiment [9]; 2.93 µM in [2]; 1.5 µM in [4]; 3.65 µM in experiment [5]; 2.98 µM in [6]. Also, the TGI in experiment [7] is 10.8 µM; in experiment [8], 4.42 µM.

`Cc1nn(-c2ccc(Cl)cc2)c2nc3c(nc12)C(=O)c1ccccc1-3`: the GI50 in [1], in experiment [9], in [2], in experiment [4], in experiment [5] and in experiment [6] was over 100 µM throughout. Besides, the GI50 in experiment [7] and in [8] was over 100 µM in each case. Also, the TGI in experiment [1], in experiment [9], in [2], in experiment [4], in experiment [5] and in experiment [6] was over 100 µM in each case. The total growth inhibition concentration (TGI) in experiment [7] and in experiment [8] was over 100 µM each time.

`Oc1cccnc1[Se]`: the TGI in experiment [1] was over 100 µM; in experiment [9], over 100 µM; in experiment [2], 97.3 µM; in [4] it was over 100 µM; in experiment [5], over 100 µM; in [6], over 100 µM. Also, the TGI in experiment [7] and in experiment [8] was over 100 µM throughout.

For `O=C(c1ccccc1)c1cc2ccccc2o1`, the GI50 was 88 µM in experiment [1]; 71.7 µM in experiment [2]; over 100 µM in experiment [3]; over 100 µM in experiment [4]; over 100 µM in experiment [5]; 80 µM in experiment [6]. The GI50 in [7] and in experiment [8] was over 100 µM each time. The TGI in experiment [1], in experiment [2], in [3], in experiment [4], in [5] and in experiment [6] was over 100 µM each time. For the same compound, the TGI in [7] and in experiment [8] was over 100 µM throughout.

On to `Cc1cc(N(CCC#N)CCC#N)ccc1N=Nc1ccc(C(=O)O)cc1`, for which the TGI in experiment [1], in [9], in experiment [2], in experiment [3], in experiment [4] and in experiment [5] was over 100 µM throughout. Also, the TGI in experiment [6] and in [8] was over 100 µM each time.

Regarding `O=C(O)Cc1cc(Cl)ccc1O`, the TGI in experiment [1], in experiment [2], in experiment [3], in experiment [4], in experiment [5] and in [6] was over 100 µM each time. Further, the TGI in [7] and in [8] was over 100 µM in each case.

For the compound `Nc1nc(/C=C\c2ccc([N+](=O)[O-])s2)nc(N2CCCC2)n1`, the GI50 was 3.99 µM in experiment [1]; 2.16 µM in experiment [9]; 4.4 µM in experiment [2]; 5 µM in experiment [3]; 0.743 µM in [4]; 12.9 µM in experiment [5]. In addition, the GI50 in experiment [6] is 9.66 µM; in experiment [7], 1.57 µM. For the same compound, the concentration for total growth inhibition (TGI) in [1] stood at 21.1 µM; in experiment [9], 12.1 µM; in [2], 21.3 µM; in experiment [3] it was 14.1 µM; in [4], 10.9 µM; in experiment [5], 27.9 µM. The TGI was 22.5 µM in [6] and 5.23 µM in [7].

The record behind these values is PubChem BioAssay (NCI).
